From the supplement of paper PMC10307832

What was measured:
Test in all cases: relative viability (nuclei count vs DMSO), 5 days (fraction); higher = more cells survive
[1] = compound: Cc1ccc2nc(NCCN)c3ncc(C)n3c2c1 + CCNC(=O)c1noc(-c2cc(C(C)C)c(O)cc2O)c1-c1ccc(CN2CCOCC2)cc1 [Luminespib] (partner 0.01 µM)
Outline: (§1)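 Lung cancer cell lines, seeded in 1536-well plates, were treated the following day by pin tool with a single drug or with five library-drug doses (not always all listed) in √10 steps on top of a fixed anchor-drug dose. Cells were fixed and nuclei stained in one step after 5 days, and nuclei were counted. Relative viability is the nuclei count for treated wells divided by that for vehicle wells, reported as medians of duplicate plates.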

[2] = compound: Cc1ccc2nc(NCCN)c3ncc(C)n3c2c1 + CS(=O)(=O)N1CCN(Cc2cc3nc(-c4cccc5[nH]ncc45)nc(N4CCOCC4)c3s2)CC1 [Pictilisib] (partner 1 µM)
Outline: as §1

Salubrinal + OSI-027 = compound: O=C(/C=C/c1ccccc1)NC(NC(=S)Nc1cccc2cccnc12)C(Cl)(Cl)Cl [Salubrinal] + COc1cccc2cc(-c3nc([C@H]4CC[C@H](C(=O)O)CC4)n4ncnc(N)c34)[nH]c12 [OSI-027] (partner 0.5 µM)
Outline: as §1

Salubrinal + AZD7762 = compound: O=C(/C=C/c1ccccc1)NC(NC(=S)Nc1cccc2cccnc12)C(Cl)(Cl)Cl [Salubrinal] + NC(=O)Nc1cc(-c2cccc(F)c2)sc1C(=O)N[C@H]1CCCNC1 [AZD7762] (partner 0.2 µM)
Outline: as §1

Cell Line	relative viability ([1]; first compound 0.04 µM)	relative viability ([1]; first compound 0.1265 µM)	relative viability ([1]; first compound 0.4 µM)	relative viability ([1]; first compound 1.265 µM)	relative viability ([1]; first compound 4 µM)	relative viability ([2]; first compound 0.04 µM)	relative viability ([2]; first compound 0.1265 µM)	relative viability ([2]; first compound 0.4 µM)	relative viability ([2]; first compound 1.265 µM)	relative viability ([2]; first compound 4 µM)	relative viability (Salubrinal + OSI-027; first compound 0.08 µM)	relative viability (Salubrinal + OSI-027; first compound 0.253 µM)	relative viability (Salubrinal + OSI-027; first compound 0.8 µM)	relative viability (Salubrinal + OSI-027; first compound 2.53 µM)	relative viability (Salubrinal + OSI-027; first compound 8 µM)	relative viability (Salubrinal + AZD7762; first compound 0.08 µM)	relative viability (Salubrinal + AZD7762; first compound 0.253 µM)	relative viability (Salubrinal + AZD7762; first compound 0.8 µM)	relative viability (Salubrinal + AZD7762; first compound 2.53 µM)	relative viability (Salubrinal + AZD7762; first compound 8 µM)
201T	1.1	1.05	1.06	1.12	1.07	0.701	0.716	0.639	0.66	0.652	0.933	0.799	0.863	0.782	0.732	0.627	0.616	0.741	0.648	0.637
A549	–	–	–	–	–	0.587	0.439	0.451	0.451	0.345	–	–	–	–	–	–	–	–	–	–
A-427	1.1	0.784	0.993	1.02	0.846	0.743	0.653	0.596	0.691	0.702	0.409	0.516	0.568	0.437	0.452	0.892	0.716	0.755	0.802	0.67
ABC-1	0.507	0.719	–	0.52	0.41	0.721	0.78	0.822	0.813	0.678	0.513	0.578	0.712	0.626	0.371	0.97	0.998	0.948	0.898	0.825
BEN	0.337	0.295	0.425	0.179	0.688	0.628	0.584	0.596	0.481	0.556	0.322	0.407	0.318	0.309	0.324	0.642	0.727	0.802	0.712	0.72
CAL-12T	0.642	0.522	0.715	0.534	0.214	0.521	0.517	0.389	0.364	0.232	0.444	0.541	0.606	0.542	0.454	0.625	0.657	0.741	0.577	0.619
COR-L23	0.682	0.644	0.763	0.47	0.625	0.866	0.7	0.741	0.85	0.741	0.868	0.547	1.1	0.794	0.71	–	–	–	–	–
COR-L 105	0.921	0.529	0.603	0.57	0.497	0.507	0.399	0.422	0.468	0.31	0.74	0.632	0.758	0.735	0.613	–	–	–	–	–
Calu-6	–	–	–	–	–	1	0.781	0.989	0.836	0.475	–	–	–	–	–	–	–	–	–	–
ChaGo-K-1	0.7	0.565	0.608	0.517	0.643	0.697	0.743	0.661	0.671	0.443	0.731	0.479	0.581	0.612	0.435	0.978	0.694	1	0.886	0.707
EBC-1	–	–	–	–	–	0.4	0.35	0.336	0.246	0.263	–	–	–	–	–	–	–	–	–	–
EKVX	0.955	0.842	0.886	0.843	0.93	0.406	0.356	0.416	0.329	0.338	0.701	0.641	0.657	0.454	0.673	0.78	0.591	0.999	0.721	0.757
EMC-BAC-2	1.21	1.2	1.19	1.2	1.13	0.586	0.58	0.554	0.569	0.579	0.364	0.359	0.41	0.384	0.427	1.1	1.06	1.31	1.16	1.13
EPLC-272H	0.272	0.253	0.196	0.299	0.159	0.33	0.356	0.288	0.336	0.306	0.297	0.286	0.293	0.258	0.249	0.229	0.191	0.304	0.229	0.156
H3255	0.878	1.01	0.824	0.926	0.76	0.555	0.431	0.487	0.38	0.456	0.689	0.553	0.748	0.603	0.603	0.967	0.786	1.03	0.87	0.859
HARA	0.822	0.753	0.622	0.681	0.681	0.524	0.362	0.436	0.39	0.418	0.539	0.557	0.582	0.524	0.462	0.374	0.254	0.25	0.437	0.196
HCC-15	0.463	0.239	0.258	0.373	0.16	0.799	0.761	0.666	0.707	0.694	0.722	0.665	0.824	0.666	0.644	1.4	1.22	1.28	1.25	1.25
HCC-44	1.07	1.04	1.06	1.05	0.591	0.692	0.777	0.595	0.535	0.565	0.371	0.411	0.759	0.501	0.484	1.02	1.01	1.02	1	0.977
HCC-78	–	–	–	–	–	0.229	0.23	0.222	0.215	0.217	0.363	0.364	0.435	0.362	0.361	0.699	0.599	0.758	0.613	0.538
